# Assay results as given in patent US20220378706A1, “PHARMACEUTICAL COMPOSITION COMPRISING PDE9 INHIBITOR” (Eisai R&D Management Co., Ltd., priority 2017, published 2022).
# Like-named read-outs stand apart in the source and are kept apart here.
# Assay: Multiple ascending dose study: plasma pharmacokinetics
# Assay type: in vivo
# Conditions: human, po; for Tmax: read-out: tmax Median
# Experimental: Four sequential cohorts of healthy participants (≥50 years and ≤85 years old) were treated with multiple ascending doses of Compound A up to the maximum tolerated dose (MTD). A total of 6 participants per cohort were randomized to Compound A. Proposed doses of Compound A were:
# Participants received Compound A capsules, orally once daily (QD) on Days 1 to 14 after an overnight fast of at least 10 hours. Compound A was administered orally with 240 milliliter (mL) (8 fluid ounces) of water.
# 1) Maximum drug concentration (Cmax) [Time Frame: Day 1 and Day 14]
# Blood samples were collected on Day 1 at predose and postdose 0.5 (30 minutes), 1, 1.5, 2, 3, 4, 5, 6, 8, 12, and 18 hours; Day 14 (at predose and postdose 0.5, 1, 1.5, 2, 3, 4, 5, 6, 8, 12, and 18 hours); and Day 15 (24 hours postdose from Day 14).
# 2) Mean time to reach maximum (peak) drug concentration (tmax) [Time Frame: Day 1 and Day 14]
# 4) Mean area under the concentration-time curve from zero time extrapolated to infinity (AUC(0-inf)) [Time Frame: Day 14]
smiles,measurement,setting,value
"COc1ncc(C)c(-c2ccc3c(c2)[nH]c(=O)c2cnn([C@H]4CCOC4)c23)c1C [Compound A, (S)-7-(2-methoxy-3,5-dimethylpyridin-4-yl)-1-(tetrahydrofuran-3-yl)-1H-pyrazolo[4,3-c]quin olin-4(5H)-one]",AUC(0-t),"5 mg, Day 1, 5 mg QD oral, read-out: AUC(0-24 h) GM (% CV)",344 ng·h/mL
same,AUC(0-t),"5 mg, Day 1, 5 mg QD oral, read-out: AUC(0-24 h) Mean (SD)",352 ng·h/mL
same,AUC(0-t),"5 mg, Day 1, 5 mg QD oral, read-out: AUC(0-24 h) Median",340 ng·h/mL
same,Cmax,"5 mg, Day 1, 5 mg QD oral, read-out: Cmax GM (% CV)",26.3 ng/mL
same,Cmax,"5 mg, Day 1, 5 mg QD oral, read-out: Cmax Mean (SD)",27.4 ng/mL
same,Cmax,"5 mg, Day 1, 5 mg QD oral, read-out: Cmax Median",26.6 ng/mL
same,Tmax,"5 mg, Day 1, 5 mg QD oral",4 h
same,AUC(0-t),"5 mg, Day 14, 5 mg QD oral, read-out: AUC(0-24 h) GM (% CV)",844 ng·h/mL
same,AUC(0-t),"5 mg, Day 14, 5 mg QD oral, read-out: AUC(0-24 h) Mean (SD)",864 ng·h/mL
same,AUC(0-t),"5 mg, Day 14, 5 mg QD oral, read-out: AUC(0-24 h) Median",773 ng·h/mL
same,AUC(0-inf),"5 mg, Day 14, 5 mg QD oral, read-out: AUC(0-inf) GM (% CV)",2380 ng·h/mL
same,AUC(0-inf),"5 mg, Day 14, 5 mg QD oral, read-out: AUC(0-inf) Mean (SD)",2480 ng·h/mL
same,AUC(0-inf),"5 mg, Day 14, 5 mg QD oral, read-out: AUC(0-inf) Median",2510 ng·h/mL
same,Cmax,"5 mg, Day 14, 5 mg QD oral, read-out: Cmax GM (% CV)",58.6 ng/mL
same,Cmax,"5 mg, Day 14, 5 mg QD oral, read-out: Cmax Mean (SD)",61.7 ng/mL
same,Cmax,"5 mg, Day 14, 5 mg QD oral, read-out: Cmax Median",49.4 ng/mL
same,Tmax,"5 mg, Day 14, 5 mg QD oral",4 h
same,AUC(0-t),"10 mg, Day 1, 10 mg QD oral, read-out: AUC(0-24 h) GM (% CV)",781 ng·h/mL
same,AUC(0-t),"10 mg, Day 1, 10 mg QD oral, read-out: AUC(0-24 h) Mean (SD)",784 ng·h/mL
same,AUC(0-t),"10 mg, Day 1, 10 mg QD oral, read-out: AUC(0-24 h) Median",735 ng·h/mL
same,Cmax,"10 mg, Day 1, 10 mg QD oral, read-out: Cmax GM (% CV)",65.5 ng/mL
same,Cmax,"10 mg, Day 1, 10 mg QD oral, read-out: Cmax Mean (SD)",66.2 ng/mL
same,Cmax,"10 mg, Day 1, 10 mg QD oral, read-out: Cmax Median",65.8 ng/mL
same,Tmax,"10 mg, Day 1, 10 mg QD oral",2 h
same,AUC(0-t),"10 mg, Day 14, 10 mg QD oral, read-out: AUC(0-24 h) GM (% CV)",1900 ng·h/mL
same,AUC(0-t),"10 mg, Day 14, 10 mg QD oral, read-out: AUC(0-24 h) Mean (SD)",1940 ng·h/mL
same,AUC(0-t),"10 mg, Day 14, 10 mg QD oral, read-out: AUC(0-24 h) Median",1980 ng·h/mL
same,AUC(0-inf),"10 mg, Day 14, 10 mg QD oral, read-out: AUC(0-inf) GM (% CV)",5100 ng·h/mL
same,AUC(0-inf),"10 mg, Day 14, 10 mg QD oral, read-out: AUC(0-inf) Mean (SD)",5260 ng·h/mL
same,AUC(0-inf),"10 mg, Day 14, 10 mg QD oral, read-out: AUC(0-inf) Median",5360 ng·h/mL
same,Cmax,"10 mg, Day 14, 10 mg QD oral, read-out: Cmax GM (% CV)",135 ng/mL
same,Cmax,"10 mg, Day 14, 10 mg QD oral, read-out: Cmax Mean (SD)",137 ng/mL
same,Cmax,"10 mg, Day 14, 10 mg QD oral, read-out: Cmax Median",144 ng/mL
same,Tmax,"10 mg, Day 14, 10 mg QD oral",1.5 h
same,AUC(0-t),"25 mg, Day 1, 25 mg QD oral, read-out: AUC(0-24 h) GM (% CV)",1650 ng·h/mL
same,AUC(0-t),"25 mg, Day 1, 25 mg QD oral, read-out: AUC(0-24 h) Mean (SD)",1670 ng·h/mL
same,AUC(0-t),"25 mg, Day 1, 25 mg QD oral, read-out: AUC(0-24 h) Median",1700 ng·h/mL
same,Cmax,"25 mg, Day 1, 25 mg QD oral, read-out: Cmax GM (% CV)",125 ng/mL
same,Cmax,"25 mg, Day 1, 25 mg QD oral, read-out: Cmax Mean (SD)",129 ng/mL
same,Cmax,"25 mg, Day 1, 25 mg QD oral, read-out: Cmax Median",136 ng/mL
same,Tmax,"25 mg, Day 1, 25 mg QD oral",3.01 h
same,AUC(0-t),"25 mg, Day 14, 25 mg QD oral, read-out: AUC(0-24 h) GM (% CV)",5140 ng·h/mL
same,AUC(0-t),"25 mg, Day 14, 25 mg QD oral, read-out: AUC(0-24 h) Mean (SD)",5210 ng·h/mL
same,AUC(0-t),"25 mg, Day 14, 25 mg QD oral, read-out: AUC(0-24 h) Median",4760 ng·h/mL
same,AUC(0-inf),"25 mg, Day 14, 25 mg QD oral, read-out: AUC(0-inf) GM (% CV)",15400 ng·h/mL
same,AUC(0-inf),"25 mg, Day 14, 25 mg QD oral, read-out: AUC(0-inf) Mean (SD)",16200 ng·h/mL
same,AUC(0-inf),"25 mg, Day 14, 25 mg QD oral, read-out: AUC(0-inf) Median",14000 ng·h/mL
same,Cmax,"25 mg, Day 14, 25 mg QD oral, read-out: Cmax GM (% CV)",332 ng/mL
same,Cmax,"25 mg, Day 14, 25 mg QD oral, read-out: Cmax Mean (SD)",336 ng/mL
same,Cmax,"25 mg, Day 14, 25 mg QD oral, read-out: Cmax Median",318 ng/mL
same,Tmax,"25 mg, Day 14, 25 mg QD oral",3 h
same,AUC(0-t),"50 mg, Day 1, 50 mg QD oral, read-out: AUC(0-24 h) GM (% CV)",2970 ng·h/mL
same,AUC(0-t),"50 mg, Day 1, 50 mg QD oral, read-out: AUC(0-24 h) Mean (SD)",3110 ng·h/mL
same,AUC(0-t),"50 mg, Day 1, 50 mg QD oral, read-out: AUC(0-24 h) Median",3060 ng·h/mL
same,Cmax,"50 mg, Day 1, 50 mg QD oral, read-out: Cmax GM (% CV)",214 ng/mL
same,Cmax,"50 mg, Day 1, 50 mg QD oral, read-out: Cmax Mean (SD)",237 ng/mL
same,Cmax,"50 mg, Day 1, 50 mg QD oral, read-out: Cmax Median",226 ng/mL
same,Tmax,"50 mg, Day 1, 50 mg QD oral",3.53 h
same,AUC(0-t),"50 mg, Day 14, 50 mg QD oral, read-out: AUC(0-24 h) GM (% CV)",11500 ng·h/mL
same,AUC(0-t),"50 mg, Day 14, 50 mg QD oral, read-out: AUC(0-24 h) Mean (SD)",11800 ng·h/mL
same,AUC(0-t),"50 mg, Day 14, 50 mg QD oral, read-out: AUC(0-24 h) Median",10900 ng·h/mL
same,AUC(0-inf),"50 mg, Day 14, 50 mg QD oral, read-out: AUC(0-inf) GM (% CV)",38600 ng·h/mL
same,AUC(0-inf),"50 mg, Day 14, 50 mg QD oral, read-out: AUC(0-inf) Mean (SD)",40700 ng·h/mL
same,AUC(0-inf),"50 mg, Day 14, 50 mg QD oral, read-out: AUC(0-inf) Median",38100 ng·h/mL
same,Cmax,"50 mg, Day 14, 50 mg QD oral, read-out: Cmax GM (% CV)",778 ng/mL
same,Cmax,"50 mg, Day 14, 50 mg QD oral, read-out: Cmax Mean (SD)",788 ng/mL
same,Cmax,"50 mg, Day 14, 50 mg QD oral, read-out: Cmax Median",807 ng/mL
same,Tmax,"50 mg, Day 14, 50 mg QD oral",1.5 h
same,AUC(0-t),"50 mg, Part C, 50 mg oral, read-out: AUC (0-24 h) GM (% CV)",10500 ng·h/mL
same,AUC(0-t),"50 mg, Part C, 50 mg oral, read-out: AUC (0-24 h) Mean (SD)",10800 ng·h/mL
same,AUC(0-t),"50 mg, Part C, 50 mg oral, read-out: AUC (0-24 h) Median",10600 ng·h/mL
